Tests used:
NPTX1 = NPTX1 knock down by lentiviral shRNA in hESCs, message level; type: cell-based, human; details: day 3 of neural differentiation
Description: (§1) Feeder free neural induction was carried out as previously described (Chambers et al., supra). Briefly, hESC cultures (WA-09 cells) were disaggregated using Accutase (Innovative Cell Technologies, Inc., San Diego, Calif.) for 20 minutes, washed using hESC media and pre-plated on gelatin for 1 hour at 37° C. in the presence of ROCK inhibitor (Sigma, Carlsbad, Calif.) to remove MEFs. The nonadherent hESCs were washed and plated at a density of 20,000 cells/cm^2 on BD Matrigel™ matrix (BD Biosciences, San Diego, Calif.) coated dishes in MEF conditioned hESCs media (CM) spiked with 10 ng/mL of FGF-2 and ROCK-inhibitor (Sigma). The ROCK inhibitor was withdrawn, and hESCs were allowed to expand in CM for 3 days or until they were nearly confluent. The initial differentiation media conditions included knock out serum replacement (KSR) media with […] TGF-β inhibitor (SB431542, Tocris) and 500 ng/mL of Noggin (R&D Systems). Upon day 5 of differentiation, increasing amounts of N2 media (Fasano et al., 2010, supra) (25%, 50%, 75%) was added to the KSR media every two days while maintaining 500 ng/mL of Noggin and TGF-β inhibitor.
(§2) Total RNA was extracted using an RNeasy kit (Qiagen). For each sample, 1 μg of total RNA was treated for DNA contamination and reverse transcribed using Quantitect first strand kit (Qiagen). Amplified material was detected using Taqman probes and PCR mix (ABI) on a Mastercycler RealPlex2 (Eppendorf). All results were normalized to a HPRT control and were from 3 technical replicates of 3 independent biological samples at each data point.
NPTX1 open reading frame (ORF) was generated by PCR. This fragment was cloned into the BamH1 and NotI sites of the lentiviral vector, pCDH-EF1-MCS-IRES GFP(SBI Biosciences). […] Viral titers were measured by serial dilution on NIH 3T3 cells (ATCC Deposit No. CRL-1658) followed by flow cytometric analysis after 72 hours. […]

hESCs (WA-09) [1] = assay: Neural induction of hESCs (dual SMAD inhibition protocol), marker expression by qRT-PCR / immunostaining; type: cell-based, human; details: for expression of the neural genes SOX1 and PAX6 (mRNA) compared to control: control empty vector
Description: as §1, §2
Cells were fixed using 4% paraformaldehyde for 15 minutes, washed with PBS, permeabilized using 0.3% Triton X in PBS, and blocked using 10% normal goat serum. Primary antibody used for microscopy was PAX6 (DSHB).
hESCs (WA-09; passages 35) were dissociated and plated on Matrigel with the ROCK inhibitor as single cells. 24 hrs post plating the ESCs were transduced with either control (empty vector), NPTX1 shRNA, or NPTX10RF containing vectors. One (1) week later, GFP-expressing colonies were manually picked and plated on MEFs. Cells were then expanded, tested for mycoplasma.
(§3) Antibodies used for performing immunocytochemistry, methods for which are described in Fasano et al., 2007, and 2010, supra, were obtained commercially as follows: PAX6 (Developmental Studies Hybridoma Bank (Iowa City, Iowa)), SOX2 (Santa Cruz Biotechnology (SCBT) (Santa Cruz, Calif.)), Nestin (Chemicon (Temecula, Calif.)), Nanog (SCBT), OCT-4 (SCBT), SMAD3 and SMAD1 (Cell Signaling Technology, Inc., Danvers, Mass.), FOXG1 (NeuraCell, Rensselaer, N.Y.), SSEA-4, SSEA-3, SSEA-1 (BD Pharmingen (San Diego, Calif.)). Alexa secondary antibodies were purchased from Invitrogen.

hESCs (WA-09) [2] = assay: Neurosphere assay on cells isolated at day 7 of differentiation; type: cell-based, human
Description: To assess the neural character of the cells generated, the resulting cells were isolated at day 7 of differentiation and subjected to a neurosphere assay. […] In control conditions, the neural genes PAX6 and SOX1 started to appear around day 4 (FIGS. 4B and 4C, respectively).

hESCs [3] = assay: Dual SMAD protocol with substituted factors, PAX6 and SMAD1 at day 7 (BMP signaling); type: cell-based, human; details: after 7 days of differentiation
Description: as §1, §3
The directed neural differentiation paradigm used in this study employed the use of both a TGF-beta blocker (SB431542) and Noggin, a BMP blocker, as it has been shown that blocking only TGF-beta is not sufficient to drive neural commitment. While CRIPTO works to enhance NODAL signaling, it has been shown that NODAL itself can bind up BMPs and thus lower BMP signaling. Because NPTX1 depletes available CRIPTO in the extracelluar space and cell surface, it seemed plausible that the resulting excess Nodal could dampen BMP signaling. To test whether NPTX1 expression can reduce BMP signaling, the dual SMAD protocol was employed to generate neural cells (addition of Noggin and TGF-beta inhibitor SB431542).
In one condition, Noggin was substituted with a CRIPTO blocking antibody to see if CRIPTO loss could result in robust neural differentiation. As a positive control for BMP signaling, another group was treated with high levels of BMP7. After 7 days of differentiation, neural marker expression and SMAD1 levels were determined.

hESCs [4] = assay: Recombinant CRP added to hESCs in neural differentiation conditions, mRNA at day 7; type: cell-based, human; details: 2 μg/ml, administered on days 0, 3 and 5; 7 days
Description: as §2
C-Reactive Protein (CRP) is a pentraxin protein that is found in the blood, and levels of which rise in response to stress and/or inflammation. […] It was also reported that, when CRP levels went over a particular threshold at 4-weeks of gestation, the time at which nervous system development occurs, an increased rate of miscarriage was identified. In the present Example, it was thus tested whether another member of the pentraxin protein family, in addition to NPTX1 might play an important role in neural differentiation. Recombinant CRP(R&D Systems, 2 μg/ml) or a vehicle control was added to hESCs cultured in conditions that would allow for neural development to proceed normally in the dish. […] Such acceleration of human development could be a cue for miscarriage and/or neural birth defects in fetuses exposed to high levels of CRP during this critical time of gestation.

CRIPTO = target: T1, CRIPTO (Homo sapiens, UniProt P13385); assay: Co-immunoprecipitation of CRIPTO with NPTX1-His from membrane fraction of hESCs; type: binding; details: conditioned media applied to hESCs for 1 hour
T1 construct: endogenous in cells; host or cells: hESCs (WA-09), membrane fraction of lysed cells
T1 sequence (P13385 31-150): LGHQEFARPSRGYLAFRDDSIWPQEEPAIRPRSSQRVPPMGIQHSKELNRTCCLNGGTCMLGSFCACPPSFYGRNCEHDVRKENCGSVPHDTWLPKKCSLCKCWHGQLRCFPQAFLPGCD

[5] = day 7 of neural differentiation

shRNA2: lentiviral NPTX1 shRNA, ACG TGT AGG TTG AGA ACA A (SEQ ID NO: 43) (ACGTGTAGGTTGAGAACAA)
knock down of NPTX1 at the message level (NPTX1): successfully knocked down NPTX1
SMAD2 and SMAD3 gene expression (RT-PCR) (hESCs (WA-09) [1]; NPTX1 knockdown hESCs): elevated gene expression
NANOG and OCT4 levels compared to control (hESCs (WA-09) [1]; day 7 of differentiation): elevated levels
CRIPTO expression compared to control-treated cells (hESCs (WA-09) [1]; [5]): 20 fold
expression of the neural genes SOX1 and PAX6 (mRNA) compared to control (hESCs (WA-09) [1]; [5]): significantly reduced levels
gene expression of PAX6 and SOX1 along the time course compared to control (hESCs (WA-09) [1]; time course of neural differentiation): much delayed and at much lower levels
number of neurospheres compared to control (hESCs (WA-09) [2]): significant reduction

shRNA1: lentiviral NPTX1 shRNA, AGT AAA GAG TGG AGA AAG A (SEQ ID NO: 42); did not knock down, used as negative control (AGTAAAGAGTGGAGAAAGA)
knock down of NPTX1 at the message level (NPTX1): did not knock down NPTX1
expression of the neural genes SOX1 and PAX6 (mRNA) compared to control (hESCs (WA-09) [1]; [5]): no effect

NC(=O)c1ccc(-c2nc(-c3ccc4c(c3)OCO4)c(-c3ccccn3)[nH]2)cc1 [SB431542, reference compound]
PAX6 expression (hESCs [3]): few PAX6 cells
pSMAD1 / SMAD1 levels (hESCs [3]): high pSMAD1 levels

shRNA3: lentiviral NPTX1 shRNA, GAG AAA GGT CAG AAA GAC A (SEQ ID NO: 44) (GAGAAAGGTCAGAAAGACA)
knock down of NPTX1 at the message level (NPTX1): successfully knocked down NPTX1
expression of the neural genes SOX1 and PAX6 (mRNA) compared to control (hESCs (WA-09) [1]; [5]): significantly reduced levels
expression of early neuroectodermal markers GBX2 and SOX2 (qRT-PCR) (hESCs (WA-09) [1]; days 0-7, days 5 and 7 statistically significant): drastic reduction

B1: CRP: recombinant C-reactive protein (R&D Systems), a pentraxin protein (protein, UniProt P02741 19-224, looked up)
C-reactive protein: QTDMSRKAFVFPKESDTSYVSLKAPLTKPLKAFTVCLHFYTELSSTRGYSIFSYATKRQDNEILIFWSKDIGYSFTVGGSEILFEVPEVTVAPVHICTSWESASGIVEFWVDGKPRVRKSLKKGYTVGAEASIILGQEQDSFGGNFEGSQSLVGDIGNVNMWDFVLSPDEINTIYLGGPFSPNVLNWRALKYEVQGEVFTKPQLWP
NPTX1 expression (hESCs [4]): increase
neural marker PAX6 compared to the control (hESCs [4]): striking up-regulation

B2: NPTX1-His: NPTX1 protein with six HIS amino acids on the N-terminus, in conditioned media (protein)
chain: HHHHHHQDFGPTRFICTSVPVDADMCAASVAAGGAEELRSSVLQLRETVLQQKETILSQKETIRELTAKLGRCESQSTLDPGAGEARAGGGRKQPGSGKNTMGDLSRTPAAETLSQLGQTLQSLKTRLENLEQYSRLNSSSQTNSLKDLLQSKIDELERQVLSRVNTLEEGKGGPRNDTEERVKIETALTSLHQRISELEKGQKDNRPGDKFQLTFPLRTNYMYAKVKKSLPEMYAFTVCMWLKSSATPGVGTPFSYAVPGQANELVLIEWGNNPMEILINDKVAKLPFVINDGKWHHICVTWTTRDGVWEAYQDGTQGGSGENLAPYHPIKPQGVLVLGQEQDTLGGGFDATQAFVGELAHFNIWDRKLTPGEVYNLATCSTKALSGNVIAWAESHIEIYGGATKWTFEACRQIN
co-immunoprecipitation with CRIPTO (CRIPTO): coimmunoprecipitate

B3: BMP7: positive control for BMP signaling, high levels of BMP7 (protein, UniProt P18075 293-431, looked up)
Bone morphogenetic protein 7: STGSKQRSQNRSKTPKNQEALRMANVAENSSSDQRQACKKHELYVSFRDLGWQDWIIAPEGYAAYYCEGECAFPLNSYMNATNHAIVQTLVHFINPETVPKPCCAPTQLNAISVLYFDDSSNVILKKYRNMVVRACGCH
PAX6 expression (hESCs [3]): few PAX6 cells
pSMAD1 / SMAD1 levels (hESCs [3]): high pSMAD1 levels
